Where a name gives a salt, the structure may show the parent alone.
Key:
[1] = system: spontaneous hypertensive rat; assay: antihypertensive activity, spontaneous hypertensive rat (SHR) test, indirect tail cuff method; format: in vivo; conditions: Table III; 50 mg/kg PO
Protocol: Compounds of this invention are useful as antihypertensive agents due to their ability to depress blood pressure in mammals. Antihypertensive activity is measured in the spontaneous hypertensive rat by the indirect tail cuff method described by A. Schwartz, Ed., Methods in Pharmacology, Vol. page 135, Appleton Century Crafts, New York (1971). […] The drop in blood pressure is measured on the third day following administration. The antihypertensive activity is expressed as mm Hg decrease in mean arterial blood pressure.

mice = assay: phenylquinone-induced writhing test in mice (PQW), analgesia; format: in vivo, male, CD-1 mice; conditions: Mus musculus; Table III; 20 mg/kg SC; read-out: PQW % (percent inhibition of writhing)
Protocol: Compounds of this invention produce analgesia when administered to mammals. A phenylquinone-induced writhing test in mice (PQW) was used as an assay to detect analgesia. The procedure employed was a modification of Siegmund, E., Cadmus, R. and Lu, G: Proc. Soc. Exptl. Bio. Med., 95: 729 (1957). 12.5 mg of phenyl-p-benzoquinone were dissolved in 5 ml of 95% ethanol and q.s. to 100 ml with distilled water and administered to mice (10 ml/kg, i.p.). This produces a characteristic "writhe" which is defined as an inward rotation of one or more feet with twisting and turning of the trunk, drawing in of the abdominal wall, lordosis and arching of the back.
A total of 28 male, CD-1 mice (18 to 30 grams) were employed for a time response. Animals recived food and water ad libitum. Drugs to be tested were prepared with distilled water and, if insoluble, one drop of a suitable surfactant was added.
Twenty animals (5/group) were administered the drug 15, 30, 45 and 60 minutes prior to phenylquinone injections. Control animals (2/group) received an equal amount of vehicle. After the administration of phenylquinone the mice were placed separately into one-liter beakers and 5 minutes were allowed to lapse. The mice were then observed for a period of 10 minutes and the number of writhes were recorded for each animal. The formula for computing percent inhibition is: [formula]
The time period with the greatest percent of inhibition is considered the peak time.
A dose range is run in the same fashion as a time response except 10 animals per group were tested at the peak time of drug activity. Fifty animals, 4 drug groups, and a vehicle control were employed. Animals were dosed and tested in a randomized manner. An estimated ED50 was calculated by a computer linear regression analysis.

`CC1Oc2ccc(Cl)cc2COC12CCN(CCCCC(c1ccc(F)cc1)c1ccc(F)cc1)CC2` (stereo not drawn) [Example 86, 7-Chloro-2-methyl-1'-[5,5-bis(4-fluorophenyl)pentyl]-spiro[2H-1,4-benzodioxepin-3(5H)4'-piperidine]hydrochloride] was tested, and the “SHR mm Hg (decrease in mean arterial blood pressure)” value [1] was -42 mm Hg and the change in vivo at 20 mg/kg (mice) was -25%.

`CC1Oc2ccccc2COC12CCN(CC(O)COc1ccccc1)CC2` (stereo not drawn) [Example 88, 2-Methyl-1'-(2-hydroxy-3-phenoxypropyl)spiro[2H-1,4-benzodioxepin-3(5H)4'-piperidine]hydrochloride] was tested, and the “SHR mm Hg (decrease in mean arterial blood pressure)” value [1] was -34 mm Hg and the change in vivo at 20 mg/kg (mice) was -99%.

For `COc1ccc(OCC(O)CN2CCC3(CC2)OCc2ccccc2OC3C)cc1` (stereo not drawn) [Example 89, 2-Methyl-1'-[2-hydroxy-3-(4-methoxyphenoxy)propyl]-spiro[2H-1,4-benzodioxepin-3(5H)4'-piperidine]hydrochloride], the “SHR mm Hg (decrease in mean arterial blood pressure)” value [1] was -40 mm Hg and the change in vivo at 20 mg/kg (mice) was -57%.

With `CC1Oc2ccc(Cl)cc2COC12CCN(CC(O)COc1ccccc1)CC2` (stereo not drawn) [Example 91, 7-Chloro-2-methyl-1'-(2-hydroxy-3-phenoxypropyl)spiro[2H-1,4-benzodioxepin-3(5H)4'-piperidine]hydrochloride] the “SHR mm Hg (decrease in mean arterial blood pressure)” value [1] was -29 mm Hg and the change in vivo at 20 mg/kg (mice) was -67%.

In the case of `COc1ccc(OCC(O)CN2CCC3(CC2)OCc2cc(Cl)ccc2OC3C)cc1` (stereo not drawn) [Example 92, 7-Chloro-2-methyl-1'-[2-hydroxy-3-(4-methoxyphenoxy)propyl]spiro[2H-1,4-benzodioxepin-3(5H)4'-piperidine]hydrochloride], the “SHR mm Hg (decrease in mean arterial blood pressure)” value [1] is reported as -66 mm Hg and the change in vivo at 20 mg/kg (mice) is reported as -47%.

In the case of `CC1Oc2ccc(Cl)cc2COC12CCN(CC(O)COc1ccc(F)cc1)CC2` (stereo not drawn) [Example 93, 7-Chloro-2-methyl-1'-[2-hydroxy-3-(4-fluorophenoxy)propyl]spiro[2H-1,4-benzodioxepin-3(5H)4'-piperidine]hydrochloride], the “SHR mm Hg (decrease in mean arterial blood pressure)” value [1] is reported as -24 mm Hg and the change in vivo at 20 mg/kg (mice) is reported as -88%.

Reference: patent publication US4521537A, “Spiro[2H-1,4-benzodioxepin-3(5H)4'-piperidine and -3'-pyrrolidine] compounds and their use as antihypertensive agents” (Hoechst-Roussel Pharmaceuticals Incorporated, priority 1984, dated 1985)
